Assays:
Plasminogen = Plasminogen (Homo sapiens, UniProt P00747); assay: In vitro for inhibition of plasmin
Serine protease 1 = Serine protease 1 (Homo sapiens, UniProt P07477); assay: Compound was tested in vitro for inhibition of trypsin
Prothrombin [1] = biological target: T1, Prothrombin (Homo sapiens, UniProt P00734); assay: In vitro for inhibition of thrombin.
[2] = biological target: Tissue-type plasminogen activator (Homo sapiens, UniProt P00750); assay: Compound was tested in vitro for inhibition of tissue plasminogen activator
Chain of Tissue-type plasminogen activator (P00750 whole entry): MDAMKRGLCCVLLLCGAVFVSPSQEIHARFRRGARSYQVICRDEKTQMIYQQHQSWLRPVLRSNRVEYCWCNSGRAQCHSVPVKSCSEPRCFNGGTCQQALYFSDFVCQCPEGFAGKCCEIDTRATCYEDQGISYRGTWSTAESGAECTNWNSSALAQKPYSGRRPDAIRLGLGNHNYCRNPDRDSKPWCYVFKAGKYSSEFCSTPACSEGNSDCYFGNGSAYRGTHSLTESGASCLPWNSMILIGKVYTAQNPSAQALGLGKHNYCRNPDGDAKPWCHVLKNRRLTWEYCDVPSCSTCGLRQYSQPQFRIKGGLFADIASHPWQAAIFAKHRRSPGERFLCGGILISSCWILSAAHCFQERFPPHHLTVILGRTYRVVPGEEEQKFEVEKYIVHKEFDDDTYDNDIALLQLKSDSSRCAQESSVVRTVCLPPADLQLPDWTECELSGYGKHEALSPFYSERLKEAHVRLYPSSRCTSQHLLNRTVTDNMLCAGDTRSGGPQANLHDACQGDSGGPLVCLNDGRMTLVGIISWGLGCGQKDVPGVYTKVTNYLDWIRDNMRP

Prothrombin [3] = biological target: T1, Prothrombin; assay: Compound was tested in vitro for inhibition of thrombin

Chain of Serine protease 1 (P07477 whole entry): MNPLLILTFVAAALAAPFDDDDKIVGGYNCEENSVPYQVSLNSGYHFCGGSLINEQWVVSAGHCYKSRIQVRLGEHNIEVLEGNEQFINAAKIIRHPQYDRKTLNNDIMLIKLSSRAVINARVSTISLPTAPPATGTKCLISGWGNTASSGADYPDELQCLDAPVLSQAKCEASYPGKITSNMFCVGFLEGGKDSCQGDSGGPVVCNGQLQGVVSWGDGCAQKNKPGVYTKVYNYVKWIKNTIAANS
Chain of Plasminogen (P00747 97-580 limits assumed): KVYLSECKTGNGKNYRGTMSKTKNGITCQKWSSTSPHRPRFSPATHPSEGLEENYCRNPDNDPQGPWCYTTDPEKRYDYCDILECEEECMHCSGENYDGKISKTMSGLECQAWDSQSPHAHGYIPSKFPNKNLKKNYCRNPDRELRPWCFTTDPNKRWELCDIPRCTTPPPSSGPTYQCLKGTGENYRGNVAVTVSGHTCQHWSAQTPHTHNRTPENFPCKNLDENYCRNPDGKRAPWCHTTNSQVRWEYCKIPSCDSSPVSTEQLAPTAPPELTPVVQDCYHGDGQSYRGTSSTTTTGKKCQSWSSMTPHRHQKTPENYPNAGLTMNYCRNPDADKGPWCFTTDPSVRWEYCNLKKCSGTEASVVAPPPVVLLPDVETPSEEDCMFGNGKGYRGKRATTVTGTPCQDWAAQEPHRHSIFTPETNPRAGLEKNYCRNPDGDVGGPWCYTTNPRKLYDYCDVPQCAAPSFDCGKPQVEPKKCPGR
Chain of Plasminogen (P00747 581-810 limits assumed): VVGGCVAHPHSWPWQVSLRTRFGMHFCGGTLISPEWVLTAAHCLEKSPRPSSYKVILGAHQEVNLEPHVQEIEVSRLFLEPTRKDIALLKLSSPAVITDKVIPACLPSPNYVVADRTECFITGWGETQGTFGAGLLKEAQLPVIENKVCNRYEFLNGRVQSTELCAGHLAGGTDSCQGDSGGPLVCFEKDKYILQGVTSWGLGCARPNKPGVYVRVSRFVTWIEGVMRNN

Row | SMILES | Ki (Plasminogen) | Ki (Serine protease 1) | Ki (Prothrombin [1]) | Ki [2] | IC50 (Prothrombin [3])
1 | CC(C)N(CC(=O)N[C@@H](CCCCN)B(O)O)C(=O)CCc1ccccc1 | 140 nM | 3.8 nM | 1.6 nM | 3370 nM | –
2 | CN(CC(=O)N[C@@H](CCCN=C(N)N)B(O)O)C(=O)CCc1ccccc1 | 460 nM | 0.61 nM | 0.16 nM | 51 nM | –
3 | NCCCC[C@H](NC(=O)CN(C(=O)CCc1ccccc1)c1ccccc1)B(O)O | 230 nM | – | 1.4 nM | 280 nM | –
4 | CN(CC(=O)N[C@@H](CCCCN)B(O)O)C(=O)Cc1ccccc1 | – | – | 16 nM | – | –
5 | CN(CC(=O)N[C@@H](CCCCN)B(O)O)C(=O)CCCc1ccccc1 | – | – | 5.4 nM | – | –
6 | CN(CC(=O)N[C@@H](CCCCN)B(O)O)C(=O)CCc1ccccc1 | 250 nM | 2.8 nM | 1.71 nM | 3800 nM | –
7 | NCCCC[C@H](NC(=O)CNC(=O)CCc1ccccc1)B(O)O | – | – | – | – | 90000 nM
8 | NCCCC[C@H](NC(=O)CN(CCc1ccccc1)C(=O)CCc1ccccc1)B(O)O | 170 nM | 2.5 nM | 0.42 nM | 680 nM | –
9 | NCCCC[C@H](NC(=O)CN(C(=O)CCc1ccccc1)C1CCCCC1)B(O)O | 250 nM | 8.4 nM | 4.9 nM | 1100 nM | –
10 | NCCCC[C@H](NC(=O)CN(C(=O)CCc1ccccc1)C1CC1)B(O)O | 160 nM | 1.1 nM | 0.69 nM | 750 nM | –
11 | CC(=O)N[C@H](Cc1ccccc1)C(=O)N1CCC[C@H]1C(=O)N[C@@H](CCCN=C(N)N)B(O)O | 5.1 nM | 0.045 nM | – | 5.7 nM | –
12 | CN(CC(=O)N[C@@H](CCCCN)B(O)O)C(=O)c1ccccc1 | – | – | 123 nM | – | –
13 | CN=C(N)NCCC[C@H](NC(=O)CN(C)C(=O)CCc1ccccc1)B(O)O | 14000 nM | 18 nM | 2.1 nM | – | –
14 | NCCCC[C@H](NC(=O)CN(Cc1ccccc1)C(=O)CCc1ccccc1)B(O)O | – | – | 4.68 nM | – | –
15 | CN(CC(=O)N[C@@H](CCC/N=C\N)B(O)O)C(=O)CCc1ccccc1 | > 10000 nM | 21 nM | 9.1 nM | 7000 nM | –
